From patent publication US7892767B2, “Phosphospecific chemokine receptor antibodies” (Washington University in St. Louis, priority 2005, dated 2011) come the findings set out here.

The subject of one assay is GPCs. Put plainly: Cell number by trypan blue exclusion, primary GPCs. The settings on record: CXCL12 1 μg/ml, 24 hours. Format: cell-based, mouse. The protocol:
Primary granule neuron cultures. Primary cultures of purified GPCs were prepared from 6 day-old BALB/C mice as described (58). Cerebella were dissected and meninges were removed. After incubation with 0.1% trypsin (Sigma) in HBSS with 125 units/ml Dnase (Sigma), 0.5 mM EDTA for 20 minutes at 37° C., cells were pelleted and washed three times with HBSS. The final cell suspension was passed through a […] nylon mesh cell strainer (Falcon, Franklin Lakes, Mich.). Cells were diluted to 2×10^6 cells/ml in DMEM/F12 (Gibco BRL, Gaithersburg, Md.) supplemented with N2 (Gibco BRL), 20 mM KCl, and 36 mM glucose.
(§1) Growth factor and drug treatment. Following serum-starvation for 24 hours, astrocytes, granule cells, U87 cells and Daoy cells, were treated with 1 μg/ml CXCL12 (PeproTech), […] AMD3465 (kind gift from Simon Fricker, AnorMED, Langley, BC, Canada) (200 μM Rolipram (Sigma), or 10 μM Forskolin (Sigma) as indicated.

The subject of the next assay is astrocytes. Put plainly: Cell number by trypan blue exclusion, primary astrocytes. It is filed as cell-based, mouse. Conditions: CXCL12 1 μg/ml, 24 hours. How it is done: Primary astrocyte cultures. Primary astrocytes were cultured from 1 to 3-day-old BALB/C mice as described (57). The cortices were triturated into single cells in minimal essential medium (Invitrogen) containing 10% FCS, and then plated onto 75 cm^2 T-flasks (0.5 hemisphere/flask) for 10-14 days. Astrocytes were prepared by vigorous shaking of T-flasks overnight, removal of non-adherent cells, and isolation of the remaining adherent cells, with 0.1% trypsin.
as §1

The next assay addresses T1, CXCR4 (Mus musculus, UniProt P70658).
T1 construct: endogenous in cells; host or cells: primary mouse astrocytes (Nf1 flox/flox, infected with Ad-LacZ or Ad-Cre)
Put plainly: CXCL12-induced CXCR4 phosphorylation (pCXCR4 western blot), wild-type (Nf1+/+) astrocytes. Format: cell-based. Conditions: CXCL12 0.1 μg/ml, at 5 minutes. The protocol:
Western Blot Analysis. Whole-cell extracts were obtained by lysing cells with lysis buffer (20 mM Tris pH 7.4, 137 mM NaCl, 10% Glycerol and 1% Triton-X-100) supplemented with phosphatase inhibitor cocktail set II (Calbiochem, La Jolla, Calif.), PMSF (1 mM), leupeptin, (0.005 mg/ml) and aprotinin (0.005 mg/ml). The proteins were resolved with 10% Bis-Tris gels (Invitrogen) and transferred onto the nitrocellulose membrane Hybond ECL (Amersham, Piscataway, N.J.) according to standard protocols. Membranes were incubated with polyclonal antibodies CXCR4 (1:500), pErk½ (1:1200), pan Erk½ (1:150), pAkt (1:500), pan Akt (1:1000), pGRK2 (1:250), and pCXCR4 (1:200) overnight at 4° C. This was followed by incubation with horseradish peroxidase-conjugated secondary antibody (1:15,000; Bio-Rad). Peroxide activity was detected using the enhanced chemiluminescence Supersignal West Dura system (Pierce, Rockford, Ill.) Mouse anti-actin antibody was used as a loading control. Quantitation of western blots was performed by densitometry using Image J software from the NIH.
Among the primary mechanisms for controlling GPCR effects on cAMP production is receptor desensitization (140). This process is initiated when ligand occupied GPCR (e.g., CXCR4) is phosphorylated by G protein receptor kinase (GRK). […]

The test system of assay [1] is PDE4A-expressing U87 cells. Nature of the assay: Viable cell number, PDE4A-expressing U87 cells. Conditions: CXCL12 1 μg/ml, AMD 3465 2.5 μg/ml, Rolipram 200 μM. Format: cell-based, human. How it is done: PDE4A expression. U87 and Daoy cells (15,000 cells) were transiently transfected for 48 h with a plasmid encoding a transgene for the tet-off transactivator (tTA) alone (kind gift from Dr. Louis Muglia, Washington University School of Medicine, St. Louis, Mo.), a plasmid containing a transgene for tet-off regulated expression of phosphodiesterase 4A (PDE4A) alone (kind gift from Dr. James Cherry, Boston University, Boston, Mass.), or a combination of both plasmids, using lipofectamine (Invitrogen) according to the manufacturer's instructions. Plasmid DNA (2 μg) was mixed with lipofectamine (5 μl) per 35 mm^2 dish. Transfection proceeded for 9 hours prior to exchanging transfection media for αMEM supplemented with 10% FCS.

The subject of the next assay is Nf1−/− astrocytes. Put plainly: Cell cycle analysis by flow cytometry, Nf1−/− astrocytes. Conditions: CXCL12 0.1 μg/ml. It is filed as cell-based, mouse. How it is done: Cell Cycle Analysis. Ethanol fixed cells were washed in PBS and resuspended in PI staining solution containing 0.1% Triton-X-100, 0.2 mg/ml RNase A, and 20 ug/ml Propidium Iodide in PBS. The cells were incubated for 15 minutes at 37° C., in the dark. Flow Cytometry was performed on a FACSCalibur system (Becton Dickinson, San Jose, Calif.) Data were analyzed using CellQuest software (Becton Dickinson, San Jose, Calif.). Aggregates and debris were excluded from the analysis.
The basis for the in vitro growth effects of CXCL12 was further evaluated by cell cycle analysis of asynchronously growing cultures of Nf1+/+ and Nf1−/− astrocytes in the presence and absence of CXCL12. In agreement with measurements of cell number, 15% more Nf1−/− astrocytes were in the S+G2M fraction of the cell cycle compared to Nf1+/+ astrocytes (P<0.005, data not shown). This decrease in Nf1+/+ cell number in response to CXCL12 was the result of both a 6% decrease in proliferation (S+G2-M) and a 38+/−8% increase in apoptosis (sub-G0). The increase in Nf1−/− cell number was the result of a 27+/−12% decline in apoptosis alone (FIG. 9C).

Another assay has as its system U87 glioblastoma cells. Put plainly: Viable cell number by trypan blue exclusion, U87 cells. Format: cell-based, human. The settings on record: CXCL12 1 μg/ml. The protocol: Brain tumor cell cultures. Cells were cultured in αMEM (Invitrogen, Carlsbad, Calif.) supplemented with 10% FCS (Biomedia, Foster City, Calif.) in the presence of penicillin streptomycin at 37° C. with 5% CO2.
as §1

T1 sequence (P70658 whole entry): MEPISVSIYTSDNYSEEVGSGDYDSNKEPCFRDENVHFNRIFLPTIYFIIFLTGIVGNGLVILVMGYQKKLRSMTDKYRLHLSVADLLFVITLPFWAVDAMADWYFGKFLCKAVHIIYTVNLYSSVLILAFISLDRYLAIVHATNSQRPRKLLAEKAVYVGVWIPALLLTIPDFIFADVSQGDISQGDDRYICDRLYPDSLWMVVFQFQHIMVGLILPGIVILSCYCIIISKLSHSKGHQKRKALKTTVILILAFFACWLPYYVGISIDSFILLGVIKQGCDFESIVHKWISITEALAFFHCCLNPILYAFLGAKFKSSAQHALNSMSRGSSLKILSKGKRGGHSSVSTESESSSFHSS

For “CXCL12: chemokine ligand of CXCR4 (Peprotech)”, the “effect on cell number” value with GPCs was “no effect”; in the assay with astrocytes, “tended to decrease”; in assay [1], “no longer any benefit”. Also, the “increase in pCXCR4” value with CXCR4 is reported as 2.6+/−0.06 fold. Moreover, the “decline in apoptosis (sub-G0)” value in the assay with Nf1−/− astrocytes was 27+/−12%. Further, the “increase in cell number” value was “greater than 2 fold” in the assay with U87 glioblastoma cells and “greater than 200%” in the assay on U87 glioblastoma cells (serum-free).
